Data reported in ChEMBL document CHEMBL1151358, “Doridosine, 1-methylisoguanosine, from Anisodoris nobilis; structure, pharmacological properties and synthesis” (1981).

Experiments:
[1] = Inhibition of guinea pig atrial contraction at 5 uM; format: functional; details: Cavia porcellus, Cardiac atrium
[2] = Inhibition of guinea pig atrial contraction at 5 uM in presence of 10 uM/L theophylline; format: functional, Cavia porcellus, Cardiac atrium
[3] = Inhibition of guinea pig atrial contraction at 20 uM; format: functional; details: Cavia porcellus, Cardiac atrium
[4] = Inhibition of guinea pig atrial contraction at 20 uM in presence of 100 uM/L theophylline; format: functional, Cavia porcellus, Cardiac atrium
[5] = Inhibition of guinea pig atrial contraction at 14 uM; format: functional; details: Cavia porcellus, Cardiac atrium
[6] = Inhibition of guinea pig atrial contraction at 5 uM in presence of 100 uM/L theophylline; format: functional, Cavia porcellus, Cardiac atrium
[7] = Inhibition of guinea pig atrial contraction at 20 uM in presence of 10 uM/L theophylline; format: functional, Cavia porcellus, Cardiac atrium

Q: Which inhibition at 5 µM [1] does the source give for `Cn1c(=O)[nH]c2c(ncn2[C@@H]2O[C@H](CO)[C@@H](O)[C@H]2O)c1=N` here?
A: 65%

Q: And the “inhibition (INH)” value [2]?
A: 83%

Q: And the inhibition at 20 µM [3]?
A: 45.2%

Q: What about the “inhibition (INH)” value [4] of the same molecule?
A: 82%

Q: What about the inhibition at 14 µM [5] of the same molecule?
A: 50%

Q: What about the “inhibition (INH)” value [6] of the same molecule?
A: 64%

Q: And the “inhibition (INH)” value [7]?
A: 95%
